Laboratory results: ChEMBL document CHEMBL3507680, “University of Dundee, Gates Library screen for HepG2 cell viability”

Test: Human HepG2 cell viability assay in 384 well format
Type: toxicity, cell-based
Set-up: dose 125 nL, time 70.5 hour; concentration not given beside the values
Conditions: HepG2 cells, read-out: Inhibition

Row | SMILES | cytotoxicity at 70.5 h [%]
1 | Cc1cccc(CNCc2c(C)nn(C)c2N2CCOCC2)n1 | -2.64
2 | O=C(CCc1nccs1)N1CCCC(N2CCNC2=O)C1 (stereo not drawn) | 0.762
3 | Cc1cc(N2CCC(N(C)C(=O)c3ccccc3)CC2)nc(C)n1 | -0.672
4 | CN(C)C(CNC(=O)c1cccc(-n2cnnn2)c1)c1ccccc1Cl (stereo not drawn) | -2.81
5 | Cc1csc(N2CCN(Cc3cnc(C)s3)CC2C)n1 (stereo not drawn) | -2.09
6 | CCc1ccc(C(=O)Nc2ccc(CC3CC(=O)NC3=O)cc2)cc1 (stereo not drawn) | 1.34
7 | CCCC(C)(C)NC(=O)c1ccc(CC2CC(=O)NC2=O)cc1 (stereo not drawn) | 0.713
8 | Cc1cn(-c2ccccc2)nc1NS(=O)(=O)c1cccc(C(=O)O)c1 | -1.1
9 | CC1CN(C)c2ccccc2CN1C(=O)CSc1ccncc1 (stereo not drawn) | 1.51
10 | CCN1CCCC1CN(CCN(C)C)S(=O)(=O)c1ccc(C#N)cc1 (stereo not drawn) | 2.57
11 | CCN(Cc1cccnc1)CC1CCCO1 (stereo not drawn) | -0.83
12 | Cc1cnn(CC2CN(CCc3ccncc3)CCO2)c1 (stereo not drawn) | 0.973
13 | Cc1nc(C)n(CC2CN(CCc3ccncc3)CCO2)n1 (stereo not drawn) | -0.163
14 | C1CCCN(c2nc(C3CC3)ns2)CC1 | 15.3
15 | CCc1nc(C2CCCN2CC(=O)Nc2c(C)nn(C)c2C)no1 (stereo not drawn) | -3.18
16 | Cc1nc(C)n(CC2CCCN2CC(=O)NCc2ccco2)n1 (stereo not drawn) | -2.21
17 | Cc1n[nH]c(C)c1C1COCCN1C(=O)Cc1cccc(F)c1 (stereo not drawn) | -4.4
18 | Cc1n[nH]c(C)c1C1CCCN1C(=O)NCCSC(C)(C)C (stereo not drawn) | -7.87
19 | Cc1csc(N2CCN(CCc3ccccn3)CC2C)n1 (stereo not drawn) | -10.7
20 | CCCN1CCN(Cc2nccn2CC)C(C)C1 (stereo not drawn) | 19.6
21 | O=C(C1CCC1)N1CCCC1c1nnc2n1CCCCC2 (stereo not drawn) | 9.95
22 | O=C(NCCCOCC1CCCO1)c1cccnc1N1CCCC1 (stereo not drawn) | 1.79
23 | Cc1cccc(N2CCN(CCNC(=O)c3ccnn3C)CC2)c1 | -9.52
24 | CCN(CC)C(CNC(=O)c1ccc(S(C)(=O)=O)cc1)c1ccco1 (stereo not drawn) | -0.309
25 | Cc1nc(C)c(C(=O)N2CCCC2c2nnc3n2CCCCC3)s1 (stereo not drawn) | -8.07
26 | c1cnn(CC2CN(c3ncnc4ccsc34)CCO2)c1 (stereo not drawn) | -0.0557

Row | SMILES | cytotoxicity at 70.5 h [%]
27 | COc1cccc(CN2CCOC(Cn3nc(C)cc3C)C2)c1 (stereo not drawn) | -6.54
28 | c1cnn(CC2CN(c3ncnc4sccc34)CCO2)c1 (stereo not drawn) | -4.77
29 | Cc1cnn(CC2CN(c3ncnc4ccsc34)CCO2)c1 (stereo not drawn) | 16
30 | CC(C)n1cc(CN2CCCN(C(=O)c3ccc[nH]3)CC2)cn1 | -5.05
31 | O=C(CC1CN(Cc2ccccc2)CCO1)Nc1ccccc1F (stereo not drawn) | -3.6
32 | CNc1cc(N2CCCC2CNCc2c[nH]nc2C(C)(C)C)ncn1 (stereo not drawn) | 0.0673
33 | Cn1ccnc1CC1CCCN(C(=O)Nc2cccn(C)c2=O)C1 (stereo not drawn) | -2.41
34 | O=C(NCCOc1ncc(Cl)cc1Cl)c1ccncc1 | 1.47
35 | Cc1ccc(CCNC(=O)N2CCCC(Cc3nccn3C)C2)cn1 (stereo not drawn) | 1.34
36 | Cc1cccc(N2CCOCC3(C2)CN(c2cncnc2)C(=O)CO3)n1 (stereo not drawn) | -6.08
37 | CCOC1CCC2(CCN(C(=O)c3c[nH]cn3)CC2)c2ccccc21 (stereo not drawn) | -6.3
38 | CCc1ccc(NC(=O)N2C[C@H]3C[C@H](C(=O)NC(C)C)[C@@H](C2)O3)cc1 | -7.8
39 | O=C(c1ccc[nH]1)N1CCCn2c(nnc2Cn2cccn2)C1 | -9.08
40 | Cc1ncnc2c1CCN(C(=O)N(C)C)CC2 | -0.115
41 | CS(=O)(=O)N1CCO[C@@H]2CN(C(=O)C3CCOC3)CC[C@@H]2C1 (stereo partly drawn) | -6.14
42 | CS(=O)(=O)N1CCO[C@@H]2CN(C(=O)N3CCOCC3)CC[C@@H]2C1 | -6.09
43 | Cc1nc(CN2C(=O)CCC23CCN(Cc2ccco2)CC3)cs1 | -1.31
44 | CN1CCC2(CC1)CN(C(=O)c1ccncc1)Cc1ccccc12 | -2.21
45 | CC(=O)N1CC[C@H]2OCC[C@@H](C(=O)NCc3ccco3)[C@@H]2C1 | 26.4
46 | CC(C)NC(=O)N1CC[C@@H]2CN(Cc3ccccc3)S(=O)(=O)[C@@H]2CC1 | 18.6
47 | CC(C)NC(=O)N1CCC2(COCc3cnc(-c4cccnc4)nc32)C1 (stereo not drawn) | -2.99
48 | CO[C@@H]1CC[C@H]2[C@H]1OCCN2C(=O)COc1ccc(F)cc1 | -16.9
49 | COCC(=O)NCc1cc(=O)n2c(n1)CN(Cc1ccsc1)CCC2 | -12.5
50 | CN(C)C(=O)N1C[C@@H]2COC[C@]2(CNS(C)(=O)=O)C1 | -14.4
51 | CNC(=O)N1CC[C@@H]2CN(Cc3cccnc3)S(=O)(=O)[C@@H]2CC1 | -17.6
52 | c1coc(CN2C[C@H](OCC3CCOCC3)[C@H]3COC[C@H]32)c1 | -15.3

Row | SMILES | cytotoxicity at 70.5 h [%]
53 | O=C(Nc1cccnc1)[C@H]1C[C@@H]2CN(C(=O)NC3CCCC3)C[C@H]1O2 | -1.2
54 | CC(C)NC(=O)N1CCc2nc(C(=O)NCc3ccccc3)sc2CC1 | -15.4
55 | CS(=O)(=O)N[C@@H]1CCO[C@]2(CCN(C(=O)C3=CCCC3)C2)C1 | -10
56 | Cc1ccc2c(c1)C(NC1CC1)CC21CCNCC1 (stereo not drawn) | 11
57 | COc1ccc2c(c1)C1(CCNCC1)CC2NC1CC1 (stereo not drawn) | 27.2
58 | Cc1ccc2c(c1)C1(CCNCC1)CC2NC1CC1 (stereo not drawn) | 2.66
59 | CN1CC[C@]2(CN(CC3CCOC3)C[C@H]2c2ccccc2)C1=O (stereo partly drawn) | 16.2
60 | COc1ncccc1CN1C[C@H]2CCN(c3ccc(C)nn3)C[C@H]2C1 | 20
61 | c1coc(CN2CCO[C@H]3[C@@H](OCC4CC4)CC[C@@H]32)c1 | -7.18
62 | CN1CC[C@]2(CN(CC3CCOCC3)C[C@H]2c2ccccc2)C1=O | -7.31
63 | CC(C)N(C)Cc1cc(=O)n2c(n1)CN(S(=O)(=O)C1CC1)CCC2 | -7.06
64 | CCOCC1c2c(cnn2C)CCN1C(=O)c1cc(C)on1 (stereo not drawn) | 6.2
65 | CCC(=O)Nc1ccc2c(c1)C1(CCOCC1)CN2CCF | 16.7
66 | CC(=O)N1Cc2ccnn2CC(C(=O)NCc2cccnc2)C1 (stereo not drawn) | -6.11
67 | COCC(=O)Nc1ccc2c(c1)C1(CCOCC1)CN2CCF | 16.5
68 | COCC1CN(Cc2ccc(F)cc2)Cc2nn(C)cc21 (stereo not drawn) | -3
69 | CCO[C@H]1CO[C@@]2(CCCN(S(=O)(=O)c3cccnc3)C2)C1 | -11.8
70 | CCN(CC)Cc1cn2c(n1)CN(C(=O)c1cc(C)on1)CC2 | -13.3
71 | COCC(=O)N1CC[C@@H]2O[C@H](COCc3ccncc3)CC[C@@H]21 | -15.9
72 | Cn1cc(CN2CC[C@]3(C[C@H](Oc4ccccn4)CO3)C2)cn1 | -6.32
73 | Cn1cc(CN2CCC[C@]3(C[C@H](Oc4ncccc4F)CO3)C2)cn1 | -5.41
74 | COCCN1CC[C@@H]2CN(Cc3cccnc3OC)C[C@@H]2C1 | 13.9
75 | COCCN1CC[C@@H]2CN(Cc3nccn3C)C[C@@H]2C1 | 8.43
76 | O=C(Cc1ccccn1)N1CCN2C[C@H](Oc3cccc(F)c3)C[C@H]2C1 | 33.7
77 | CNC(=O)[C@H]1CO[C@H]2CCN(Cc3ccc4ccccc4n3)C[C@H]2C1 | -0.28
78 | FC1(F)CCN(Cc2cccnc2)CC12CCN(c1ccccn1)C2 (stereo not drawn) | -15.1
